Laboratory results published in patent US7919454B2, “Methods of treating using conjugates transported by a PEPT2 transporter” (XenoPort, Inc., priority 2001, dated 2011).
Like-named read-outs stand apart in the source and are kept apart here. Non-standard residues stand in square brackets, D forms with d. Residues, ends and D or L forms follow the SMILES beside them. *: point of attachment. Dansyl = CN(C)c1cccc2c(S(=O)(=O)*)cccc12; Sar = CNCC(=O)O

Experiments:
PEPT1 = molecular target: T1, PEPT1 (Homo sapiens, UniProt P46059); experiment: Transport currents (Vmax vs Gly-Sar) in Xenopus oocytes transfected with PEPT1, two-electrode voltage-clamp; assay type: cell-based; details: for Substrate quality for PEPT1 relative to Gly-Sar (in words): cells transfected with PEPT1; for PEPT1 (% Gly-Sar) drug only (Vmax) / PEPT1 (% Gly-Sar) +XP10973 (Vmax): oocytes transfected with PEPT1; for PEPT1 (% Gly-Sar) +XP10973 (Vmax): in the presence of inhibitor XP10973
T1 construct: The complete open reading frame was cloned into a Xenopus oocyte expression plasmid; expressed in transfected cells; host or cells: Xenopus oocytes injected with cRNA
T1 sequence (P46059 1-708): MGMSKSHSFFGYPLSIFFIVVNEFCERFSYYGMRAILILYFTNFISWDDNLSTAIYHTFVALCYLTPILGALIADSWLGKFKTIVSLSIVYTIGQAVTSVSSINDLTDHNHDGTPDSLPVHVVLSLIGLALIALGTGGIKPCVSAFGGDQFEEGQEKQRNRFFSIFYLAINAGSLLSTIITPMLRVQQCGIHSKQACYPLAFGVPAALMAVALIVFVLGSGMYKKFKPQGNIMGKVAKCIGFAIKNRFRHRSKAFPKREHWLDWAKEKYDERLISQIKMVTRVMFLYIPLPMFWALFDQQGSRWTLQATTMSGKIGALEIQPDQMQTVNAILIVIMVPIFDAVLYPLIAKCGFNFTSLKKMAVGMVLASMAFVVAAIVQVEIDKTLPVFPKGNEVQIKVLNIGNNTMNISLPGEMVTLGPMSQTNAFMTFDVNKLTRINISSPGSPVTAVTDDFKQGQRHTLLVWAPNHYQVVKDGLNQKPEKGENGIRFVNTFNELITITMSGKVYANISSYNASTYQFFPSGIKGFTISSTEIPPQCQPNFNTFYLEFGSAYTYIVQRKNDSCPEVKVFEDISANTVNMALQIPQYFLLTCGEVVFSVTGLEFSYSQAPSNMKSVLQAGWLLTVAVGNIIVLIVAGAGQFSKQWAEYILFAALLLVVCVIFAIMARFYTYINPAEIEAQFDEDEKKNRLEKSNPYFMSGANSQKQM
Procedure: (§1) The complete open reading frame was cloned into a Xenopus oocyte expression plasmid, linearized, and cRNA was generated by run-off transcription using the T7 polymerase. Xenopus oocytes were prepared and maintained as previously described
(§2) (Collins, et al., 1997) and injected with 10-30 ng RNA. Transport currents were measured 2-4 days after injection using two-electrode voltage-clamp (Axon Instruments). All experiments were performed using a modified oocyte Ringers solution (90 mM NaCl, 2 mM KCl, 1.8 mM CaCl2, 1 mM MgCl2, and 10 mM NaHEPES, pH 6.8). The membrane potential of oocytes was held at −60 mV and current traces acquired using PowerLab software. Responses to compounds were measured in the presence and absence of a specific non-transported inhibitor (XP10973) for PEPT1 and PEPT2. Data are expressed as the currents that are blocked by XP10973

PEPT2 = molecular target: T2, PEPT2 (Homo sapiens, UniProt Q16348, S640G); experiment: Transport currents (Vmax vs Gly-Sar) in Xenopus oocytes transfected with PEPT2, two-electrode voltage-clamp; assay type: cell-based; details: for Substrate preference PEPT2 versus PEPT1 (in words): comparison of PEPT2 and PEPT1 transfected oocytes
T2 construct: The complete open reading frame was cloned into a Xenopus oocyte expression plasmid; expressed in transfected cells; host or cells: Xenopus oocytes injected with cRNA
T2 sequence (Q16348 1-729 S640G): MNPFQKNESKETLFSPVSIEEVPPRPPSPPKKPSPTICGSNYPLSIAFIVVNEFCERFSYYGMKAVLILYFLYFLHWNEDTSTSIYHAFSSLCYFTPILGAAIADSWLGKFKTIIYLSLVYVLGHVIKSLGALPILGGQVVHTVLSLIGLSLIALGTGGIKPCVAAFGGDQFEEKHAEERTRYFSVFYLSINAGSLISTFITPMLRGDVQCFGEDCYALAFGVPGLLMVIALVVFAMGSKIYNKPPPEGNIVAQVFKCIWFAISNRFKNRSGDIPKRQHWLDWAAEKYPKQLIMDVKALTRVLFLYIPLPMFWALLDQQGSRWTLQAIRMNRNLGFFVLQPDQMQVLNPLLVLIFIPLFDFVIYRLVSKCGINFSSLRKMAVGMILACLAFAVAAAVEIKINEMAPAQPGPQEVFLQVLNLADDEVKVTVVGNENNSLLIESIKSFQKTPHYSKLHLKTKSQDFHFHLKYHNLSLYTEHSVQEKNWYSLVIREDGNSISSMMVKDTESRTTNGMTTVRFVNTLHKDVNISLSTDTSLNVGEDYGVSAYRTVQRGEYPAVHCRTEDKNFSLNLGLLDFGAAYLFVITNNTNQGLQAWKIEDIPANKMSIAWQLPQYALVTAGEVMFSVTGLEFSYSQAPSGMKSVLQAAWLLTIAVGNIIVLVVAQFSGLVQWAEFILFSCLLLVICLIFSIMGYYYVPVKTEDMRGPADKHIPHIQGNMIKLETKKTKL
Procedure: as §1
as §2, with “Transport” for “(Collins, et al., 1997) and injected with 10-30 ng RNA. Transport”

Caco-2 cells = assay type: in vitro ADME
Procedure: Caco-2 cells were plated on Millipore transwell filters and allowed to differentiate for 18-22 days. Integrity of the monolayers was confirmed by lack of radiolabeled inulin transport across the monolayer. Compounds were added to the apical chamber, and the appearance of compounds in the basolateral chamber were measured at various timepoints by scintillation counting or LC/MS/MS.
FIGS. 1 and 2 show uptake of cephradine and cefadroxil by Caco-2 cells in the presence and absence of XP10973 inhibitor. […] However, as described above, cephradine and cefadroxil are poor substrates for PEPT1 and good substrates for PEPT2.

[1] = oocytes transfected with PEPT2, drug only
[2] = oocytes transfected with PEPT2, in the presence of inhibitor XP10973

| Structure (SMILES) | Substrate quality for PEPT1 relative to Gly-Sar (in words) (PEPT1) | PEPT1 (% Gly-Sar) drug only (Vmax) (PEPT1) [% Gly-Sar] | PEPT1 (% Gly-Sar) +XP10973 (Vmax) (PEPT1) [% Gly-Sar] | PEPT2 (% Gly-Sar) +XP10973 (Vmax) (PEPT2) [% Gly-Sar] | PEPT2 (% Gly-Sar) drug only (Vmax) (PEPT2) [% Gly-Sar] | Substrate quality for PEPT2 relative to Gly-Sar (in words) (PEPT2) | Substrate quality for PEPT2 relative to Gly-Sar (in words) (PEPT2; cells transfected with PEPT2) | Substrate preference PEPT2 versus PEPT1 (in words) (PEPT2) | PEPT2 (% Gly-Sar) drug only (Vmax) (PEPT2; [1]) [% Gly-Sar] | PEPT2 (% Gly-Sar) +XP10973 (Vmax) (PEPT2; [2]) [% Gly-Sar] | Uptake by Caco-2 cells (in words) (Caco-2 cells) | Inhibition of PEPT1 transport (in words) (PEPT1) | Inhibition of PEPT2 transport (in words) (PEPT2) |
| --- | --- | --- | --- | --- | --- | --- | --- | --- | --- | --- | --- | --- | --- |
| CC1(C)S[C@@H]2[C@H](NC(=O)[C@H](N)c3ccc(O)cc3)C(=O)N2[C@H]1C(=O)O [Amoxacillin, amoxacillin] | relatively poor susbstrates | 1.3 | 1.1 | 15 | 85 | relatively good substrates |  |  |  |  |  |  |  |
| N[C@@H](C(=O)N[C@@H]1C(=O)N2C(C(=O)O)=C(Cl)CS[C@H]12)c1ccccc1 [Cefaclor, cefaclor] | relatively poor susbstrates | 4 | 1.6 |  |  |  | relatively good substrates | better substrates for PEPT2 than they are for PEPT1 | 148 | 22 |  |  |  |
| CC1=C(C(=O)O)N2C(=O)[C@@H](NC(=O)[C@H](N)c3ccc(O)cc3)[C@H]2SC1 [Cephadroxil, cefadroxil] | relatively poor susbstrates | 18 | 2.1 |  |  |  | relatively good substrates | better substrates for PEPT2 than they are for PEPT1 | 96 | 27 | taken up |  |  |
| CC1=C(C(=O)O)N2C(=O)[C@@H](NC(=O)[C@H](N)C3=CCC=CC3)[C@H]2SC1 [Cephradine, cephradine] | relatively poor susbstrates | 3.5 | 1.9 |  |  |  | relatively good substrates | better substrates for PEPT2 than they are for PEPT1 | 159 | 37 | taken up |  |  |
| CN(CC(=O)O)C(=O)CN [Gly-Sar] (H-Gly-[Sar]-OH) |  | 100 | 16 |  |  |  |  |  | 100 | 12 |  |  |  |
| CC(C)C[C@H](NC(=O)[C@@H](N)CCCCNS(=O)(=O)c1cccc2c(N(C)C)cccc12)C(=O)O [XP10973] (H-Lys(Dansyl)-Leu-OH) |  |  |  |  |  |  |  |  |  |  |  | specific inhibitor | specific inhibitor |
